Data as given in patent US9403866B2, “Compositions and methods for increasing telomerase activity” (Telomerase Activation Sciences, Inc., priority 2009, dated 2016).

Key:
[1] = test system: mTERT heterozygous mouse lineage-depleted bone marrow cells; experiment: Colony formation assay of mTERT heterozygous mouse lineage-depleted bone marrow cells; type: cell-based; settings: 12 days
Description: mTERT heterozygous mouse lineage-depleted bone marrow cells were plated into a standard colony formation assay in the presence of compound 4 (100 nm and 500 nM), vehicle (0.1% DMSO), or nothing. After 12 days, hematopoietic colonies were enumerated (BFU-E, CFU-GM, and CFU-GEMM). Total colony counts were: untreated, 67; vehicle-treated, 64; 100 nM compound 4, 68; and 500 nM compound 4, 77.

[2] = test system: wild-type mouse lineage-depleted bone marrow cells; experiment: Colony formation assay of wild-type mouse lineage-depleted bone marrow cells; type: cell-based; settings: 12 days
Description: Mouse bone marrow-derived lineage-depleted cells (enriched for hematopoietic stem and progenitor cells but not a pure population) were obtained. Wild-type mouse lineage-depleted bone marrow cells from two separate mice were plated into a standard colony formation assay in the presence of compound 4 (100 nM and 500 nM), vehicle (0.1% DMSO), or nothing. After 12 days, hematopoietic colonies were enumerated (BFU-E, CFU-GM, and CFU-GEMM).

telomerase [3] = target: telomerase (Homo sapiens, UniProt O14746); experiment: Keratinocyte cell/TRAP assay (HEKneo-P cells); type: cell-based; set-up: host or cells: HEKneo-P (pooled neonatal human epidermal keratinocytes); settings: telomerase activation
Text: Harley et al., U.S. Pat. […] Harley et al., U.S. Pat. […] Non-treatment control (NT) was also included. […]

telomerase [4] = target: T1, telomerase (Mus musculus, UniProt O70372); experiment: Telomerase activity in short-term liquid culture, lineage-depleted bone marrow cells from mTERT heterozygous mice; type: cell-based; settings: 1 uM, three days
T1 construct: endogenous in cells; host or cells: lineage-depleted bone marrow cells, wild-type mice
T1 sequence (O70372 1-1122): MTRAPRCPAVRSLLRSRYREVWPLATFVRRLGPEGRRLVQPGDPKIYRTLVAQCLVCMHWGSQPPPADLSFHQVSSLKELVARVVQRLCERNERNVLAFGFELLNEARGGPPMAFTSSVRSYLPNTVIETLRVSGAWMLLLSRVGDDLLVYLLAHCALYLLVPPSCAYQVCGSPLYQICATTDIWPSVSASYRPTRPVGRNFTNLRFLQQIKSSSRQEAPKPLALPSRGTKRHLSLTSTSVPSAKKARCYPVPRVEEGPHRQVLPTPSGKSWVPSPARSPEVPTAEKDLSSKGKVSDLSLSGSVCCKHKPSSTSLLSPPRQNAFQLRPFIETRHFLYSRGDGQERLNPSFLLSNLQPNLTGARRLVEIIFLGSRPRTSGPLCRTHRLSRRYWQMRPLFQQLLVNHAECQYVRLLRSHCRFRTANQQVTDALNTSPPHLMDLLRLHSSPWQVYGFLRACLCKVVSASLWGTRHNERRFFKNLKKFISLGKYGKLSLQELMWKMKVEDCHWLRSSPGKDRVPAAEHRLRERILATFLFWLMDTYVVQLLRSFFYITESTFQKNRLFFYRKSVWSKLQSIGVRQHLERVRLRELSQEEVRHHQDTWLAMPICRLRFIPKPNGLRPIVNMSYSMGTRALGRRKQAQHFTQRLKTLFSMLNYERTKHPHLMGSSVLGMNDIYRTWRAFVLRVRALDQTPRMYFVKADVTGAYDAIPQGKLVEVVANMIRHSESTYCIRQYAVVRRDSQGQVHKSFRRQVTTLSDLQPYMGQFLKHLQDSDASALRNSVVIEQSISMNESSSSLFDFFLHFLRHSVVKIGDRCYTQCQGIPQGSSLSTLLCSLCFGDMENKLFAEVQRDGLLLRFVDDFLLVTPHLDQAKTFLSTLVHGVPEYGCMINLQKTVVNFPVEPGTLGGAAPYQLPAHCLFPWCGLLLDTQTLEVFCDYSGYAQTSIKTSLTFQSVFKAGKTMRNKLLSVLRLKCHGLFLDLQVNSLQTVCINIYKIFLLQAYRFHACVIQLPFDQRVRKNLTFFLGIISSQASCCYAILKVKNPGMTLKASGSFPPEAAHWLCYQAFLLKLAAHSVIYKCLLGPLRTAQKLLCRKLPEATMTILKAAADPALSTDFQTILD
Description: Lineage-depleted bone marrow cells from mTERT heterozygous and wild type mice were grown in IMDM+15% FBS containing stem cell factor (Kitl), IL-3, and IL-11 for three days in the presence of compound 4 (1 uM, 100 nM, or 10 nM), vehicle (0.1% DMSO), or nothing. Telomerase activity in the wild-type cells increased by 40-50% when treated with 100 nM and 1 uM compound 4, relative to the vehicle-treated control.
Telomerase activity in the mTERT heterozygous cells increased by 50% when treated with 1 uM compound 4, relative to the vehicle-treated control.

SAECs = experiment: Alamar Blue Proliferation Assay in SAECs; type: cell-based, human; settings: 3 days, 1% DMSO, different concentrations
Description: Human SAECs or human fibroblasts were grown in the presence of different concentrations of compound 4 in a final concentration of 1% DMSO in the medium. After 3 days the cells were harvested and proliferation was measured using the Alamar Blue Proliferation Assay.

Matrigel plugs = experiment: Administration to BALB/c mice: total RNA and capillary density in Matrigel plugs; type: in vivo; settings: 10 mg/kg/day PO (BID)
Description: BALB/c mice (2-3 months) were dosed with compound 4 in 2% ethanol at 10 mg/kg/day PO (BID). Mice were pre-dosed for 1 day (Day −1). Matrigel™ (BDBiosciences, California) was injected subcutaneously in the abdomen on Day 0, and the Matrigel™ plugs were harvested on Day 12.
Total RNA, which reflects cell number, was increased 1.6-fold (p<0.2) n=5/group in Matrigel™ plugs after treatment with compound 4.
The other half of the Matrigel™ plug was used for histology and CD31 immunostaining to analyze capillary density (CD31 is a marker for endothelial cells, which line the capillaries). A 1.3-fold increase in capillary density in (CD-31 immuno staining) (p<0.5) n=5/group was observed after treatment with compound 4.

Sequence of telomerase (Homo sapiens, UniProt O14746) (O14746 whole entry): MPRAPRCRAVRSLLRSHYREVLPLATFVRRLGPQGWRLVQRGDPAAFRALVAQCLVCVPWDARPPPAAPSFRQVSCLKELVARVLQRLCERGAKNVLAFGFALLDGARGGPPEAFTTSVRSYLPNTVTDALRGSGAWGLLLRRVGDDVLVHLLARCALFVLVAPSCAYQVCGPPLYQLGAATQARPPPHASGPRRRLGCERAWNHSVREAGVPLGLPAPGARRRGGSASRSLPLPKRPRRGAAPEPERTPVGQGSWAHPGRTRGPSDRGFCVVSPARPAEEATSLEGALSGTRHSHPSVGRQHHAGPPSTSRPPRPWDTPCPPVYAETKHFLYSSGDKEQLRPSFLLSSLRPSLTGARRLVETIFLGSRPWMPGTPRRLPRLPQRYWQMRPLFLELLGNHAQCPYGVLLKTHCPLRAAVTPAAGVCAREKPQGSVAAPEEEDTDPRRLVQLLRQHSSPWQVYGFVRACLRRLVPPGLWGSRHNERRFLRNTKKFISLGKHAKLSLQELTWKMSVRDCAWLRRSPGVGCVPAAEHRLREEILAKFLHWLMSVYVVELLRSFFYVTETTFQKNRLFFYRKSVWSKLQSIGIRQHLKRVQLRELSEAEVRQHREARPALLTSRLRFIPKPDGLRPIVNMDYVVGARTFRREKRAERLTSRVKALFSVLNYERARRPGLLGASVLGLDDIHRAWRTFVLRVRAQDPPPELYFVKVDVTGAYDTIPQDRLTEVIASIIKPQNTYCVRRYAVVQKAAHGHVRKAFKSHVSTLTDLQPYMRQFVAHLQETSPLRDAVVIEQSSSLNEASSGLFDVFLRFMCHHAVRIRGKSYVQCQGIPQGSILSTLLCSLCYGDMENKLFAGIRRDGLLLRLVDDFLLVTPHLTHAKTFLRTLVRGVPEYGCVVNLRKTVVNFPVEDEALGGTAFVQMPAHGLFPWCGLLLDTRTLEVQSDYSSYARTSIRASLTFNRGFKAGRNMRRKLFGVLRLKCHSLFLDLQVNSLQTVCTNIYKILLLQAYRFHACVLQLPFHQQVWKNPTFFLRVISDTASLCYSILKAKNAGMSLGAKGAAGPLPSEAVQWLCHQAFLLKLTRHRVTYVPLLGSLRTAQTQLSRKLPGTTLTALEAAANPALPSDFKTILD

CC(C)C(N)C(=O)OC1CCC23CC24CCC2(C)C(C5(C)CCC(C(C)(C)O)O5)C(O)CC2(C)C4CC(O)C3C1(C)C (stereo not drawn) [Compound 4, 2-(L)-Amino-3-methyl-butyric acid 6α,16β-dihydroxy-17-[5-(1-hydroxy-1-methyl-ethyl)-2-methyl-tetrahydro-furan-2-yl]-4,4,13,14-tetramethyl-tetradecahydro-cyclopropa[9,10]cyclopenta[a]phenanthren-3β-yl ester]
BFU-E colonies ([1]; 100 nM): 22
CFU-E colonies ([1]; 100 nM): 43
CFU-GEMM colonies ([1]; 100 nM): 3
Total colony counts ([1]; 100 nM): 68
BFU-E colonies ([1]; 500 nM): 27
CFU-E colonies ([1]; 500 nM): 48
CFU-GEMM colonies ([1]; 500 nM): 1
Total colony counts ([1]; 500 nM): 77
BFU-E colonies ([2]; Mouse 1, 100 nM): 50
CFU-GEMM colonies ([2]; Mouse 1, 100 nM): 0
CFU-GM colonies ([2]; Mouse 1, 100 nM): 111
Total colony counts ([2]; Mouse 1, 100 nM): 161
BFU-E colonies ([2]; Mouse 1, 500 nM): 38
CFU-GEMM colonies ([2]; Mouse 1, 500 nM): 1
CFU-GM colonies ([2]; Mouse 1, 500 nM): 124
Total colony counts ([2]; Mouse 1, 500 nM): 162
BFU-E colonies ([2]; Mouse 2, 100 nM): 31
CFU-GEMM colonies ([2]; Mouse 2, 100 nM): 1
CFU-GM colonies ([2]; Mouse 2, 100 nM): 90
Total colony counts ([2]; Mouse 2, 100 nM): 121
BFU-E colonies ([2]; Mouse 2, 500 nM): 29
CFU-GEMM colonies ([2]; Mouse 2, 500 nM): 2
CFU-GM colonies ([2]; Mouse 2, 500 nM): 98
Total colony counts ([2]; Mouse 2, 500 nM): 129
EC50 (telomerase [3]): 6 to 22 nM
Telomerase activity increase relative to the vehicle-treated control (telomerase [4]): 50%
increased proliferation (SAECs): about 50%
Total RNA (reflects cell number) increase in Matrigel plugs (Matrigel plugs; Day 12, p<0.2): 1.6 fold
increase in capillary density (CD-31 immuno staining) (Matrigel plugs; Day 12, p<0.5): 1.3 fold
